Literature values in patent publication US12156858B2, “Pharmaceutical compositions comprising levodopa, a dopamine decarboxylase inhibitor and a COMT inhibitor and method of administration thereof” (InTrance Medical Systems Inc., priority 2014, dated 2024).

Settings: intake of levodopa alone

share metabolized to dopamine before levodopa reaches the brain: more than 90%
SMILES: N[C@@H](Cc1ccc(O)c(O)c1)C(=O)O [Levodopa, (−)-L-α-amino-β-(3,4-dihydroxybenzene) propanoic acid]
